# Source: patent US20210278408A1, “METHODS OF TREATMENT OF CANCER WITH SUBSTITUTED PYRROLE AND PYRAZOLE COMPOUNDS AND DIAGNOSIS OF CANCERS SUSCEPTIBLE TO TREATMENT WITH SUBSTITUTED PYRROLE AND PYRAZOLE COMPOUNDS” (Bantam Pharmaceutical, LLC, priority 2018, published 2021)
# Test system: 406 cancer cell lines, 73 blood tumor cell lines and 333 solid tumor cell lines
# Assay: OmniScreen drug efficacy on cancer cell lines, fitted area under curve (AUC) of dose-response
# Format: cell-based
# Design: AUCs: unit not given beside the values
# Description: Predictive biomarkers for genes indicating responsiveness to a therapeutic compound can be determined using a cell-based screening technique, such as that offered under the name OmniScreen™ (Crown Biosciences).
# In one experimental study, predictive biomarkers were determined for Compound A197 efficacy on 406 cancer cell lines, 73 blood tumor cell lines and 333 solid tumor cell lines. Genomic data for the cell lines was downloaded from the Cancer Cell Line Encyclopedia Project (CCLE) website. Driver mutations were predicted on the Cancer Genome Interpreter Database; only driver mutations were used in the mutation related analysis.
# Dose-response curves were fitted by the 4-parameter model:
# in which top and bottom are the two asymptotes of the sigmoidal curve, EC50 is the relative IC50, and concentration x is in log−10 scale. To accommodate experimental errors, Bottom was allowed to go down to −20%, and Top was allowed to go up to 120%. The fitting error of a model is measured by
# σECS0 is the standard error of EC50. In general, such fitting error should be less than 40% for a model to be considered acceptable. The fitted area under curve (AUC) is calculated by
# where a=log(3, 10) and b=log(30000,10).
smiles,measurement,setting,value
"Cc1nn(-c2nc(-c3ccc(C(F)(F)F)cc3)c(SC(C)C)s2)c(C(=O)O)c1-c1cccc(F)c1 [Compound A197, 4-(3-fluorophenyl)-1-(5-(isopropylthio)-4-(4-(trifluoromethyl)phenyl)thiazol-2-yl)-3-methyl-1H-pyrazole-5-carboxylic acid]",AUCs,"22Rv1, Prostate",2.52
same,AUCs,"8505C, H&N/Thyroid",3.78
same,AUCs,"A253, Submaxillary gland",3.32
same,AUCs,"A875, Skin",3.84
same,AUCs,"A2058, Skin",3.64
same,AUCs,"A2780, Ovary",2.43
same,AUCs,"A2780cis, Ovary",2.68
same,IC50,"A2780cis, Ovary",0.541 µM
same,AUCs,"A-172, Brain&Nerves",3.29
same,AUCs,"A-204, Muscle",3.66
same,AUCs,"A-375, Skin",3.42
same,AUCs,"A-427, Lung",3.59
same,AUCs,"A-431, Skin",2.96
same,AUCs,"A-673, Muscle",2.78
same,AUCs,"AGS, Stomach/Gastric",3.63
same,IC50,"AGS, Stomach/Gastric",205 µM
same,AUCs,"AN3 CA, Uterus",3.88
same,AUCs,"ARH-77, Blood",3.22
same,AUCs,"ASH-3, H&N/Thyroid",3.41
same,responsiveness of blood tumor cell lines versus solid tumor cell lines,"AUC, Welch's t-test P-value 2.3e-16",more likely to be responsive
same,AUCs,"AsPC-1, Pancreas",3.59
same,AUCs,"BT-20, Breast",3.2
same,AUCs,"BT-483, Breast",3.43
same,AUCs,"BxPC-3, Pancreas",2.97
same,AUCs,"C4-2, Prostate",3.61
same,AUCs,"C666-1, Nose",3.15
same,AUCs,"C-33 A, Uterus",3.7
same,AUCs,"CAL-27, Tongue",3.17
same,AUCs,"CFPAC-1, Pancreas",3.56
same,AUCs,"COV644, Ovary",3.69
same,AUCs,"Ca Ski, Uterus",4.35
same,AUCs,"Caki-2, Kidney",3.53
same,AUCs,"Calu-6, Lung",3.21
same,AUCs,"Caov-3, Ovary",3.65
same,AUCs,"Capan-1, Pancreas",3.82
same,AUCs,"Capan-2, Pancreas",3.28
same,AUCs,"CoC1, Ovary",2.95
same,AUCs,"CoC1/DDP, Ovary",3.33
same,AUCs,"D283 Med, Brain&Nerves",3.28
same,AUCs,"DMS 79, Lung",4.09
same,AUCs,"DMS 114, Lung",3.56
same,AUCs,"DU 145, Prostate",2.99
same,AUCs,"DV-90, Lung",3.1
same,AUCs,"Daoy, Brain&Nerves",3.14
same,AUCs,"Detroit 562, Pharynx",3.54
same,AUCs,"DoTc2 4510, Uterus/Cervix",3.9
same,AUCs,"EBC-1, Lung",3.47
same,AUCs,"ES-2, Ovary",3.75
same,IC50,"ES-2, Ovary",70.8 µM
same,AUCs,"FaDu, Pharynx",2.9
same,AUCs,"GTL-16, Stomach/Gastric",3.18
same,AUCs,"HCC 94, Uterus",2.92
same,IC50,"HCC 94, Uterus",0.806 µM
same,AUCs,"HCC1187, Breast",3.63
same,AUCs,"HCC1500, Breast",3.27
same,AUCs,"HCC1806, Breast",3.39
same,AUCs,"HCC1937, Breast",3.36
same,AUCs,"HCC1954, Breast",3.44
same,AUCs,"HCC2218, Breast",3.48
same,AUCs,"HCC2935, Lung",3.49
same,AUCs,"HCCC-9810, Liver",3.64
same,AUCs,"HCCLM3, Liver",3.87
same,AUCs,"HEC-1-A, Uterus",3.28
same,AUCs,"HEC-1-B, Uterus",2.85
same,AUCs,"HGC-27, Stomach/Gastric",2.39
same,AUCs,"HLE, Liver",3.3
same,AUCs,"HLF, Liver",3.43
same,AUCs,"HPAC, Pancreas",2.98
same,AUCs,"HT-3, Uterus/Cervix",3.91
same,IC50,"HT-3, Uterus/Cervix",30.1 µM
same,AUCs,"HT-55, Large intestine/Colorectum",4
same,AUCs,"HT-1080, Soft tissue",3.07
same,AUCs,"HT-1376, Bladder",4.11
same,AUCs,"HUH-1, Liver",3.81
same,AUCs,"HeLa 229, Cervix",3.37
same,AUCs,"Hep3B, Liver",3.5
same,IC50,"Homo sapiens, 22Rv1, 22Rv1, Prostate",1.09 µM
same,IC50,"Homo sapiens, A204, A-204, Muscle",184 µM
same,IC50,"Homo sapiens, A673, A-673, Muscle",0.701 µM
same,IC50,"Homo sapiens, A2780, A2780, Ovary",0.863 µM
same,IC50,"Homo sapiens, A-375, A-375, Skin",28.1 µM
same,IC50,"Homo sapiens, A-431, A-431, Skin",1.11 µM
same,IC50,"Homo sapiens, AN3-CA, AN3 CA, Uterus",45.6 µM
same,IC50,"Homo sapiens, BXPC-3, BxPC-3, Pancreas",0.351 µM
same,IC50,"Homo sapiens, C6661, C666-1, Nose",24.6 µM
same,IC50,"Homo sapiens, CAL-27, CAL-27, Tongue",3.42 µM
same,IC50,"Homo sapiens, Ca-Ski, Ca Ski, Uterus",41.3 µM
same,IC50,"Homo sapiens, DMS-79, DMS 79, Lung",420 µM
same,IC50,"Homo sapiens, DU-145, DU 145, Prostate",0.835 µM
same,IC50,"Homo sapiens, FaDu, Pharynx",0.341 µM
same,IC50,"Homo sapiens, HEC-1B, HEC-1-B, Uterus",0.438 µM
same,IC50,"Homo sapiens, HGC-27, HGC-27, Stomach/Gastric",0.513 µM
same,IC50,"Homo sapiens, HPAC, Pancreas",0.467 µM
same,IC50,"Homo sapiens, HT-1080, HT-1080, Soft tissue",0.99 µM
same,IC50,"Homo sapiens, HuTu80, Hutu 80, Small intestine/Duodenum",0.88 µM
same,IC50,"Homo sapiens, Ishikawa, Uterus",0.297 µM
same,IC50,"Homo sapiens, JEG-3, JEG-3, Placenta",0.993 µM
same,IC50,"Homo sapiens, LNCaP-Clone-FGC, LNCaP clone FGC, Prostate",0.172 µM
same,IC50,"Homo sapiens, ME-180, ME-180, Uterus",0.562 µM
same,IC50,"Homo sapiens, MES-SA, Uterus",0.48 µM
same,IC50,"Homo sapiens, MES-SA/Dx5, MES-SA/DX5, Uterus",0.342 µM
same,IC50,"Homo sapiens, MIA PaCa-2, MIA PaCa-2, Pancreas",2.91 µM
same,IC50,"Homo sapiens, MKN-1, MKN1, Stomach/Gastric",5.36 µM
same,IC50,"Homo sapiens, NCI-H146, NCI-H146, Lung",42.6 µM
same,IC50,"Homo sapiens, NCI-H187, NCI-H187, Lung",8.36 µM
same,IC50,"Homo sapiens, NCI-H226, NCI-H226, Lung",2.23 µM
same,IC50,"Homo sapiens, NCI-H446, NCI-H446, Lung",30.5 µM
same,IC50,"Homo sapiens, NCI-H526, NCI-H526, Lung",212 µM
same,IC50,"Homo sapiens, NCI-H1648, NCI-H1648, Lung",72.9 µM
same,IC50,"Homo sapiens, NCI-H2452, NCI-H2452, Lung",70.8 µM
same,IC50,"Homo sapiens, NUGC-3, NUGC-3, Stomach/Gastric",26.5 µM
same,IC50,"Homo sapiens, NUGC-4, NUGC-4, Stomach/Gastric",1.35 µM
same,IC50,"Homo sapiens, OVCAR-8, OVCAR-8, Ovary",1.02 µM
same,IC50,"Homo sapiens, PANC-1, PANC-1, Pancreas",2.61 µM
same,IC50,"Homo sapiens, RL95-2, RL95-2, Uterus",0.416 µM
same,IC50,"Homo sapiens, RPMI-2650, RPMI-2650, Nose",0.843 µM
same,IC50,"Homo sapiens, SCC-4, SCC-4, Tongue",833 µM
same,IC50,"Homo sapiens, SCC-9, SCC-9, Tongue",26.1 µM
same,IC50,"Homo sapiens, SK-MEL-5, SK-MEL-5, Skin",75.1 µM
same,IC50,"Homo sapiens, SK-MEL-28, SK-MEL-28, Skin",105 µM
same,IC50,"Homo sapiens, SK-OV-3, SK-OV-3, Ovary",84.9 µM
same,IC50,"Homo sapiens, SNU1, SNU-1, Stomach/Gastric",12.6 µM
same,IC50,"Homo sapiens, SNU-5, SNU-5, Stomach/Gastric",1.95 µM
same,IC50,"Homo sapiens, SW626, SW626, Ovary",415 µM
same,IC50,"Homo sapiens, SW756, SW756, Ovary",37.9 µM
same,IC50,"Homo sapiens, SW982, SW982, Soft tissue",66 µM
same,IC50,"Homo sapiens, WM 266-4, WM-266-4, Skin",32.4 µM
same,AUCs,"HuCCT1, Liver",3.24
same,AUCs,"Hutu 80, Small intestine/Duodenum",2.69
same,AUCs,"IM95m, Stomach/Gastric",2.9
same,IC50,"IM95m, Stomach/Gastric",0.601 µM
same,AUCs,"Ishikawa, Uterus",2.44
same,AUCs,"JAR, Placenta",2.57
same,IC50,"JAR, Placenta",0.673 µM
same,AUCs,"JEG-3, Placenta",3.2
same,AUCs,"JHH-5, Liver",3.56
same,AUCs,"JIMT-1, Breast",3.62
same,AUCs,"KATO III, Stomach/Gastric",3.2
